Columns and labels:
[1] = test system: HeLa human cervical carcinoma cell line; assay: In vitro antitumor activity assay (SRB), HeLa; type: cell-based; conditions: read-out: IC50, inhibitory activity on cell proliferation of HeLa cell line
From the text: (§1) HeLa human cervical carcinoma cell line, A-549 human non-small cell lung carcinoma cell line, NCI-H2228 human lung carcinoma cell line, NCI-H460 human lung carcinoma cell line, MDA-MB-231 human breast carcinoma cell line, MCF-7 human breast carcinoma cell line, Bel-7402 human hepatic carcinoma cell line, Hep3B human hepatic carcinoma cell line, QGY-7703 human hepatic carcinoma cell line, MV-4-11 human leukemic cell line, DAUDI human leukemic cell line, Jurkat human leukemic cell line, A498 renal carcinoma cell line, LoVo human colon carcinoma cell line, HCT1116 human colon carcinoma cell line, A431 human skin carcinoma cell line, PANC-1 human pancreatic carcinoma cell line, U87-MG human brain carcinoma cell line, SH-SY5Y human brain carcinoma cell line, RPMI-8226 human bone carcinoma cell line, HT1080 human fibrosarcoma cell line, PC-3 human prostatic carcinoma cell line, AGS human gastric adenocarcinoma cell line, and BGC-823 human gastric adenocarcinoma cell line were purchased from the Cell Bank of the Chinese Academy of Sciences.
(§2) The positive control is bufalin (formulated according to the common method), its purity is 98% or more by HPLC-UV and its structure is identified by NMR. The compounds to be tested and the positive control were diluted with normal saline with a concentration gradient of 10^−4 M, 10^−5 M, 10^−6 M, 10^−7 M and 10^−8 M.
(§3) According to cell growth rate, tumor cells in the log phase of growth were seeded into 96-well culture plates at 100 μL per well, and allowed to attach for 24 hours, followed by addition of a test compound or positive control at 10 μL per well. For each concentration, the test was carried out in triplicate wells. Solvent control wells with addition of normal saline into cell culture and a blank well containing only cell culture medium but without cells for zeroing were also included. The tumor cells were incubated for 72 hours at 37° C. under 5% CO2, and then the culture medium (RPMI-1640) was removed. The cells were fixed with 10% cool TCA by incubating for 1 h at 4° C., washed with distilled water for 5 times, and dried naturally in the air. A solution of SRB (Sigma) (4 mg/mL) in 1% glacial acetic acid was added at 100 μL per well, and the cells were stained for 15 minutes at room temperature, and the supernatant was discarded. The plates were washed for 5 times with 1% acetic acid, and dried in air. Finally, Tris solution was added at 150 μL per well, and the absorbance (A) was measured at a wavelength of 515 nm using a microplate reader. The growth inhibition on tumor cell proliferation was calculated according to the following equation:
(§4) Growth Inhibition (%)=[(Absorbance of negative control−Absorbance of blank)−(Absorbance of sample−Absorbance of blank)]/(Absorbance of negative control−Absorbance of blank)×100%
(§5) Drug concentration: 10 μM, 1 μM, 0.1 μM, 10 nM, 1 nM, 0.1 nM.
(§6) IC50 was fitted by GraphPad Prism 4.

[2] = test system: A-549 human non-small cell lung carcinoma cell line; assay: In vitro antitumor activity assay (SRB), A549; type: cell-based; conditions: Homo sapiens; A549, Table 2; read-out: IC50, inhibition of cell proliferation, A549
From the text: as §1, §2, §3, §4, §5, §6

[3] = test system: MCF-7 human breast carcinoma cell line; assay: In vitro antitumor activity assay (SRB), MCF-7; type: cell-based; conditions: Homo sapiens, MCF7; MCF-7, Table 2; read-out: IC50, inhibition of cell proliferation, MCF-7
From the text: as §1, §2, §3, §4, §5, §6

[4] = test system: PC-3 human prostatic carcinoma cell line; assay: In vitro antitumor activity assay (SRB), PC-3; type: cell-based; conditions: Homo sapiens, Prostatic carcinoma cell; PC-3, Table 2; read-out: IC50, inhibition of cell proliferation, PC-3
From the text: as §1, §2, §3, §4, §5, §6

[5] = test system: LoVo human colon carcinoma cell line; assay: In vitro antitumor activity assay (SRB), LoVo; type: cell-based; conditions: Table 2, read-out: IC50, inhibition of cell proliferation, LoVo
From the text: as §1, §2, §3, §4, §5, §6

[6] = test system: human non-small cell lung carcinoma A549 xenograft; assay: In vivo therapeutic effect against A549 xenograft in nude mice; conditions: for Inhibition Rate (%) / Tumor Weight(g) Mean ± SE: A549 xenograft, 4 mg/kg ip QOD, after 21 days
Description: This experiment is to evaluate the in vivo therapeutic effects of compounds bufalin, II1D-06.HCl, II1E-01.HCl and II1B-02.HCl against human-derived lung carcinoma A549 cell xenograft in nude mice.
Solvent control: 4% DMSO & 2% Tween-80 & 5% PEG-400 solution in normal saline
Compounds to be tested: bufalin, II1B-02.HCl, II1E-01.HCl, II1D-06.HCl
Formulating method: the compound was dissolved with DMSO into a stock solution, which was then diluted into an injection with a final DMSO concentration of 4%.
Positive control: Rapamycin Formulating method: it was formulated into an injection with a final DMSO concentration of 4%.
After the tumor size reaches about 200 mm^3, the mice bearing the tumor were grouped randomly into 8 groups according to the tumor size, including the groups of solvent control, positive control rapamycin 5 mg/kg, II1E-01.HCl 2 mg/kg, II1E-01.HCl 4 mg/kg, II1E-01.HCl 6 mg/kg, II1B-02.HCl 4 mg/kg, II1D-06.HCl 4 mg/kg, bufalin 1.6 mg/kg, wherein the dosage selection is based on that the maximum tolerable dosage is 1.6 mg/kg for bufalin and 6 mg/kg for II1E-01.HCl. Rapamycin was administered intravenously once a week (QW) and the other groups were administered intraperitoneally once every other day (QOD). The tumor was weighted after 21 days to calculate the inhibition rate. The equation for calculating inhibition rate (IR) is IR=(WC−WT)/WC×100%, wherein, WC represents the tumor weight of the control group, and WT represents the tumor weight of the treating group.

| SMILES | IC50 [1] [nM] | IC50 [2] [nM] | IC50 [3] [nM] | IC50 [4] [nM] | IC50 [5] [nM] | inhibition of growth of human lung carcinoma A549 xenograft, in words ([6]; A549 xenograft in nude mice, bufalin at 1.6 mg/kg) | Inhibition Rate (%) [6] [%] | Tumor Weight(g) Mean ± SE [6] [g] |
| --- | --- | --- | --- | --- | --- | --- | --- | --- |
| CCN(CC)CCNC(=O)O[C@H]1CC[C@@]2(C)[C@H](CC[C@@H]3[C@@H]2CC[C@]2(C)[C@@H](c4ccc(=O)oc4)CC[C@]32O)C1 [II1B-02] | 3.73 | 0.39 ± 0.08 | 18.8 ± 2.68 | 20.1 ± 4.08 | 15.7 ± 1.67 |  |  |  |
| CCN(CC)CCNC(=O)O[C@H]1CC[C@@]2(C)[C@H](CC[C@@H]3[C@@H]2CC[C@]2(C)[C@@H](c4ccc(=O)oc4)CC[C@]32O)C1.Cl [II1B-02•HCl] |  |  |  |  |  | significantly inhibit the growth | 58.34 | 0.7013 ± 0.0707 |
| CN(C)CCN(C)C(=O)O[C@H]1CC[C@@]2(C)[C@H](CC[C@@H]3[C@@H]2CC[C@]2(C)[C@@H](c4ccc(=O)oc4)CC[C@]32O)C1 [II1B-03] | 1.58 | 2.81 ± 0.43 | 10.6 ± 3.04 | 27.3 ± 2.46 | 13.4 ± 3.37 |  |  |  |
| CCNCCNC(=O)O[C@H]1CC[C@@]2(C)[C@H](CC[C@@H]3[C@@H]2CC[C@]2(C)[C@@H](c4ccc(=O)oc4)CC[C@]32O)C1 [II1B-05] | 1.65 | 2.83 ± 0.9 | 7.98 ± 1.9 | 12.6 ± 0.86 | 14.4 ± 0.76 |  |  |  |
| C[C@]12CC[C@H](OC(=O)N3CCCNCC3)C[C@H]1CC[C@@H]1[C@@H]2CC[C@]2(C)[C@@H](c3ccc(=O)oc3)CC[C@]12O [II1D-06] | 0.45 | 0.87 ± 0.02 | 2.13 ± 0.29 | 1.25 ± 0.46 | 0.58 ± 0.29 |  |  |  |
| C[C@]12CC[C@H](OC(=O)N3CCCNCC3)C[C@H]1CC[C@@H]1[C@@H]2CC[C@]2(C)[C@@H](c3ccc(=O)oc3)CC[C@]12O.Cl [II1D-06•HCl] |  |  |  |  |  |  | 37.15 | 1.0580 ± 0.0866 |

Source: US20130005696A1, “BUFADIENOLIDE DERIVATIVES, PREPARING PROCESS THEREOF, COMPOSITION COMPRISING THE SAME AND THE USE THEREOF” (priority 2011, published 2013)
